US20240317754A1 (priority 2020, published 2024)
Read-outs that look alike come from different tables or passages of the source.

What was measured:
Experiment in all cases: microbe, parasite or virus in culture
Type in all cases: cell-based
[1] = tested on: SARS-CoV-2 replicon; settings: HEK293T cells; for IC50 / inhibition at 10 µM: Severe acute respiratory syndrome coronavirus 2, HEK-293T, 60 h
[2] = tested on: SARS-CoV replicon; settings: Severe acute respiratory syndrome coronavirus, HEK-293T, 60 h
[3] = tested on: SARS-CoV-2 (B.1)
[4] = Severe acute respiratory syndrome coronavirus 2, Vero C1008, 48 h

`CC(C)C(=O)Nc1ncnn2c([C@]3(C#N)O[C@H](COC(=O)C(C)C)[C@@H](OC(=O)C(C)C)[C@H]3OC(=O)C(C)C)ccc12` [ATV001, (2R,3R,4R,5R)-2-cyano-2-(4-isobutyramidopyrrolo[2,1-f][1,2,4]triazin-7-PGP-yl)-5-((isobutyryloxy)methyl)tetrahydrofuran-3,4-diyl bis(2-methylpropanoate)] was tested, and the “antiviral activity relative to GS-441524” value ([1]; in words) was “significantly lower than that of GS-441524”, the IC50 [1] was greater than 50000 nM and the inhibition at 10 µM [2] was 66.8%.

`CC(=O)Nc1ncnn2c([C@]3(C#N)O[C@H](COC(C)=O)[C@@H](OC(C)=O)[C@H]3OC(C)=O)ccc12` [ATV002, (2R,3R,4R,5R)-2-(4-acetamidopyrrolo[2,1-f][1,2,4]triazin-7-yl)-5-(acetoxymethyl)-2-cyanotetrahydrofuran-3,4-diyl diacetate] was tested, and the “antiviral activity relative to GS-441524” value ([1]; in words) was “significantly lower than that of GS-441524”, the IC50 [1] was greater than 50000 nM and the inhibition at 10 µM [2] was 61%.

Work on `CC(=O)OC[C@H]1O[C@@](C#N)(c2ccc3c(N)ncnn23)[C@H](OC(C)=O)[C@@H]1OC(C)=O` [ATV003, (2R,3R,4R,5R)-5-(acetoxymethyl)-2-(4-aminopyrrolo[2,1-f][1,2,4]triazin-7-yl)-2-cyanotetrahydrofuran-3,4-diyl diacetate] yielded an inhibition at 10 µM [1] of 97.6%, an IC50 [1] of 830 nM and an IC50 [2] of 910 nM. It also gave an inhibition at 10 µM [2] of 98.8%.

In the case of `CC(C)C(=O)OC[C@H]1O[C@@](C#N)(c2ccc3c(N)ncnn23)[C@H](OC(=O)C(C)C)[C@@H]1OC(=O)C(C)C` [ATV004, (2R,3R,4R,5R)-2-(4-aminopyrrolo[2,1-f][1,2,4]triazin-7-yl)-2-cyano-5-((isobutyryloxy)methyl)tetrahydrofuran-3,4-diyl bis(2-methylpropanoate)], the “antiviral activity relative to GS-441524” value ([1]; in words) is reported as “improved”, the inhibition at 10 µM [1] is reported as 97.5% and the IC50 [1] is reported as 680 nM. It also gave an inhibition at 5 µM [2] of 91.8%.

`CCCCCOC(=O)Nc1ncnn2c([C@]3(C#N)O[C@H](CO)[C@@H](O)[C@H]3O)ccc12` [ATV005, Pentyl (7-((2R,3R,4S,5R)-2-cyano-3,4-dihydroxy-5-(hydroxymethyl)tetrahydrofuran-2-yl)pyrrolo[2,1-f][1,2,4]triazin-4-yl)carbamate] was tested, and the IC50 [1] was greater than 50000 nM and the inhibition at 10 µM [2] was 73.3%.

Compound `CC(=O)OC[C@H]1O[C@@](C#N)(c2ccc3c(N)ncnn23)[C@H](O)[C@@H]1O` [ATV007, ((2R,3S,4R,5R)-5-(4-aminopyrrolo[2,1-f][1,2,4]triazin-7-yl)-5-cyano-3,4-dihydroxytetrahydrofuran-2-yl)methyl acetate] has an inhibition at 10 µM [1] of 91.6%.

With `CCC(=O)OC[C@H]1O[C@@](C#N)(c2ccc3c(N)ncnn23)[C@H](O)[C@@H]1O` [ATV008, ((2R,3S,4R,5R)-5-(4-aminopyrrolo[2,1-f][1,2,4]triazin-7-yl)-5-cyano-3,4-dihydroxytetrahydrofuran-2-yl)methyl propionate] the inhibition at 10 µM [1] was 98.2%.

For `CCCC(=O)OC[C@H]1O[C@@](C#N)(c2ccc3c(N)ncnn23)[C@H](O)[C@@H]1O` [ATV009, ((2R,3S,4R,5R)-5-(4-aminopyrrolo[2,1-f][1,2,4]triazin-7-yl)-5-cyano-3,4-dihydroxytetrahydrofuran-2-yl)methyl butyrate], the “antiviral activity relative to GS-441524” value ([1]; in words) was “improved”, the inhibition at 10 µM [1] was 98.8% and the IC50 [1] was 220 nM. The IC50 [3, 4] was 1330 nM.

`CCCCCCCCC(=O)OC[C@H]1O[C@@](C#N)(c2ccc3c(N)ncnn23)[C@H](O)[C@@H]1O` [ATV010, ((2R,3S,4R,5R)-5-(4-aminopyrrolo[2,1-f][1,2,4]triazin-7-yl)-5-cyano-3,4-dihydroxytetrahydrofuran-2-yl)methyl nonanoate] was tested, and the “antiviral activity relative to GS-441524” value ([1]; in words) was “improved”, the inhibition at 10 µM [1] was 99% and the IC50 [1] was 320 nM. The IC50 [3, 4] was 696 nM.

With `CCC(CC)C(=O)OC[C@H]1O[C@@](C#N)(c2ccc3c(N)ncnn23)[C@H](O)[C@@H]1O` [ATV011, ((2R,3S,4R,5R)-5-(4-aminopyrrolo[2,1-f][1,2,4]triazin-7-yl)-5-cyano-3,4-dihydroxytetrahydrofuran-2-yl)methyl 2-ethylbutanoate] the “antiviral activity relative to GS-441524” value ([1]; in words) was “improved”, the inhibition at 10 µM [1] was 98.9% and the IC50 [1] was 320 nM. For the same compound, the IC50 [3, 4] was 2120 nM.

`N#C[C@@]1(c2ccc3c(N)ncnn23)O[C@H](COC(=O)C2CC2)[C@@H](O)[C@H]1O` [ATV012, ((2R,3S,4R,5R)-5-(4-aminopyrrolo[2,1-f][1,2,4]triazin-7-yl)-5-cyano-3,4-dihydroxytetrahydrofuran-2-yl)methyl cyclopropanecarboxylate] gave an inhibition at 10 µM [1] of 97.1%.

In the case of `N#C[C@@]1(c2ccc3c(N)ncnn23)O[C@H](COC(=O)c2ccccc2)[C@@H](O)[C@H]1O` [ATV013, ((2R,3S,4R,5R)-5-(4-aminopyrrolo[2,1-f][1,2,4]triazin-7-yl)-5-cyano-3,4-dihydroxytetrahydrofuran-2-yl)methyl benzoate], the inhibition at 10 µM [1] is reported as 97.7%, the IC50 [1] is reported as 500 nM and the IC50 [3, 4] is reported as 2260 nM.

`N#C[C@@]1(c2ccc3c(N)ncnn23)O[C@H](COC(=O)C2CCCCC2)[C@@H](O)[C@H]1O` [ATV014, ((2R,3S,4R,5R)-5-(4-aminopyrrolo[2,1-f][1,2,4]triazin-7-yl)-5-cyano-3,4-dihydroxytetrahydrofuran-2-yl)methyl cyclohexanecarboxylate] was tested, and the “antiviral activity relative to GS-441524” value ([1]; in words) was “lower IC50 values and higher antiviral activity”, the “inhibition of SARS-CoV-2 replicon replication” value ([1]; in words) was “significant inhibitory effects” and the inhibition at 10 µM [1] was 98.2%. For the same compound, the IC50 [1] was 260 nM and the IC50 [3] was 331 nM.

Work on `N#C[C@@]1(c2ccc3c(N)ncnn23)O[C@H](COC(=O)C2CCCC2)[C@@H](O)[C@H]1O` [ATV015, ((2R,3S,4R,5R)-5-(4-aminopyrrolo[2,1-f][1,2,4]triazin-7-yl)-5-cyano-3,4-dihydroxytetrahydrofuran-2-yl)methyl cyclopentanecarboxylate] yielded an inhibition at 10 µM [1] of 97.9% and an IC50 [1] of 710 nM.

In the case of `N#C[C@@]1(c2ccc3c(N)ncnn23)O[C@H](COC(=O)CC(F)(F)F)[C@@H](O)[C@H]1O` [ATV016, ((2R,3S,4R,5R)-5-(4-aminopyrrolo[2,1-f][1,2,4]triazin-7-yl)-5-cyano-3,4-dihydroxytetrahydrofuran-2-yl)methyl3,3,3-trifluoropropanoate], the inhibition at 10 µM [1] is reported as 97.2% and the IC50 [1] is reported as 830 nM.

Compound `CC(C)CC(=O)OC[C@H]1O[C@@](C#N)(c2ccc3c(N)ncnn23)[C@H](O)[C@@H]1O` [ATV017, ((2R,3S,4R,5R)-5-(4-aminopyrrolo[2,1-f][1,2,4]triazin-7-yl)-5-cyano-3,4-dihydroxytetrahydrofuran-2-yl)methyl 3-methylbutanoate] has an inhibition at 10 µM [1] of 97.2%, an IC50 [1] of 430 nM and an IC50 [3, 4] of 2190 nM.

Compound `CC(C)(C)C(=O)OC[C@H]1O[C@@](C#N)(c2ccc3c(N)ncnn23)[C@H](O)[C@@H]1O` [ATV018, ((2R,3S,4R,5R)-5-(4-aminopyrrolo[2,1-f][1,2,4]triazin-7-yl)-5-cyano-3,4-dihydroxytetrahydrofuran-2-yl)methyl pivalate] has an inhibition at 10 µM [1] of 97.5%, an IC50 [1] of 420 nM and an IC50 [3, 4] of 938 nM.

Work on `CC(C)[C@@H](N)C(=O)OC[C@H]1O[C@@](C#N)(c2ccc3c(N)ncnn23)[C@H](O)[C@@H]1O` [ATV019, ((2R,3S,4R,5R)-5-(4-aminopyrrolo[2,1-f][1,2,4]triazin-7-yl)-5-cyano-3,4-dihydroxytetrahydrofuran-2-yl)methyl D-valinate] yielded an inhibition at 10 µM [1] of 97.2%, an IC50 [1] of 970 nM and an IC50 [2] of 790 nM. For the same compound, the inhibition at 10 µM [2] was 98.6%.

Compound `CC(C)[C@H](N)C(=O)OC[C@H]1O[C@@](C#N)(c2ccc3c(N)ncnn23)[C@H](O)[C@@H]1O` [ATV020, ((2R,3S,4R,5R)-5-(4-aminopyrrolo[2,1-f][1,2,4]triazin-7-yl)-5-cyano-3,4-dihydroxytetrahydrofuran-2-yl)methyl L-valinate] has an inhibition at 10 µM [1] of 99.2%, an IC50 [1] of 2350 nM and an IC50 [2] of 1300 nM. It also gave an inhibition at 10 µM [2] of 99.2%.

`N#C[C@@]1(c2ccc3c(N)ncnn23)O[C@H](COC(=O)[C@@H](N)Cc2ccccc2)[C@@H](O)[C@H]1O` [ATV021, ((2R,3S,4R,5R)-5-(4-aminopyrrolo[2,1-f][1,2,4]triazin-7-yl)-5-cyano-3,4-dihydroxytetrahydrofuran-2-yl)methyl L-phenylalaninate] was tested, and the inhibition at 10 µM [1] was 0%.

`N#C[C@@]1(c2ccc3c(N)ncnn23)O[C@H](COC(=O)[C@H](N)Cc2ccccc2)[C@@H](O)[C@H]1O` [ATV022, ((2R,3S,4R,5R)-5-(4-aminopyrrolo[2,1-f][1,2,4]triazin-7-yl)-5-cyano-3,4-dihydroxytetrahydrofuran-2-yl)methyl D-phenylalaninate] was tested, and the inhibition at 10 µM [1] was 0%.

In the case of `CCC(C)[C@H](N)C(=O)OC[C@H]1O[C@@](C#N)(c2ccc3c(N)ncnn23)[C@H](O)[C@@H]1O` (stereo partly drawn) [ATV023, ((2R,3S,4R,5R)-5-(4-aminopyrrolo[2,1-f][1,2,4]triazin-7-yl)-5-cyano-3,4-dihydroxytetrahydrofuran-2-yl)methyl (2S)-2-amino-3-methylpentanoate], the inhibition at 10 µM [1] is reported as 98.7% and the IC50 [1] is reported as 950 nM.

`CCC(C)[C@@H](N)C(=O)OC[C@H]1O[C@@](C#N)(c2ccc3c(N)ncnn23)[C@H](O)[C@@H]1O` (stereo partly drawn) [ATV024, ((2R,3S,4R,5R)-5-(4-aminopyrrolo[2,1-f][1,2,4]triazin-7-yl)-5-cyano-3,4-dihydroxytetrahydrofuran-2-yl)methyl (2R)-2-amino-3-methylpentanoate] gave an inhibition at 10 µM [1] of 99.1% and an IC50 [1] of 860 nM.

Compound `CC(C)C(=O)OC[C@H]1O[C@@](C#N)(c2cc(F)c3c(N)ncnn23)[C@H](O)[C@@H]1O` [ATV025, ((2R,3S,4R,5R)-5-(4-amino-5-fluoropyrrolo[2,1-f][1,2,4]triazin-7-yl)-5-cyano-3,4-dihydroxytetrahydrofuran-2-yl)methyl isobutyrate] has an inhibition at 10 µM [1] of 97.8% and an IC50 [1] of 890 nM.

Work on `CC1(C)O[C@H]2[C@@H](O1)[C@](C#N)(c1ccc3c(N)ncnn13)O[C@@H]2CO` [Intermediate 5 of RDV, reference compound] yielded an IC50 [1] greater than 50000 nM and an inhibition at 10 µM [2] of 75.9%.
